Experimental data published in PMC6327988 (Journal of Enzyme Inhibition and Medicinal Chemistry, 2019).

Legend:
[1] = target: BuChE (Homo sapiens, UniProt P06276); experiment: BuChE inhibition, Ellman colorimetric method; assay type: biochemical; details: ratio of BuChE IC50 values
[2] = target: AChE (Homo sapiens, UniProt P22303); experiment: AChE inhibition, Ellman colorimetric method; assay type: biochemical; details: ratio of AChE IC50 values
Sequence of AChE (P22303 32-614): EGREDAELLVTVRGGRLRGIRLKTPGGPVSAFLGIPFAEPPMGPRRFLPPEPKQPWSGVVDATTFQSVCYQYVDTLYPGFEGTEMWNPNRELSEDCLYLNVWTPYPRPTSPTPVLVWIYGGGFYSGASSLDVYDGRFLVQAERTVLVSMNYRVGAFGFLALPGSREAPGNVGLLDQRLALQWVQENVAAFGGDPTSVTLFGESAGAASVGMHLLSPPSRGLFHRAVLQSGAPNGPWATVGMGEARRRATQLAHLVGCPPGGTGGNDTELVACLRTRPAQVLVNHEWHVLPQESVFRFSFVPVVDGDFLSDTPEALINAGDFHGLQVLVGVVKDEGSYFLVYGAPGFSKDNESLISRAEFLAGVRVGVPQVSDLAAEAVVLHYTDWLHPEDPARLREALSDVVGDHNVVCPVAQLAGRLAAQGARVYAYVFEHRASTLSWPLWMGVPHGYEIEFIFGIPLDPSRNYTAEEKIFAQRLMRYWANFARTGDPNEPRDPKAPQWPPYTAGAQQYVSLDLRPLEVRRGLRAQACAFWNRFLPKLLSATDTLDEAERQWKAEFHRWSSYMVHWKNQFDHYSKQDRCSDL

Sequence of BuChE (P06276 29-602): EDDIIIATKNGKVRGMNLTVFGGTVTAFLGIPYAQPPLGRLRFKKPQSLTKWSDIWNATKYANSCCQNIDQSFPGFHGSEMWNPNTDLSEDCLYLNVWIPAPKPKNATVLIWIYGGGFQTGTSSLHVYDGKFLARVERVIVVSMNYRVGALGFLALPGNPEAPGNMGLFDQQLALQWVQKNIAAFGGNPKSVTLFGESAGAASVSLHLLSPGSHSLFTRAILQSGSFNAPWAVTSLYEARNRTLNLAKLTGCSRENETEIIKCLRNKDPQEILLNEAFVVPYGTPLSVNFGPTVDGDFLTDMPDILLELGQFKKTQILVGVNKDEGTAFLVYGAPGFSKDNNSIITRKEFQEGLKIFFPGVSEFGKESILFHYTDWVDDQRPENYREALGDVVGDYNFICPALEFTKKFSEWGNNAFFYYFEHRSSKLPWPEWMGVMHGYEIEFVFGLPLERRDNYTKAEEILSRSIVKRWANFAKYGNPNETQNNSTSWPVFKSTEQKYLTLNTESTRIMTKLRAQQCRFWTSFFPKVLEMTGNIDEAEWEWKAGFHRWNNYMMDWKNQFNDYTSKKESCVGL

How did the “fold weaker BuChE inhibitor compared to uracil derivative 4” value ([1]; vs 4) turn out when O=c1[nH]cc(Br)c(=O)[nH]1 [Compound 3, 5-bromo-1H-pyrimidine-2,4-dione] was run?
Its value is 2.13 fold.

How did the “fold stronger AChE inhibitory profile compared to uracil 3” value ([2]; vs 3) turn out when Cc1ccc(S(=O)(=O)n2cc(Br)c(=O)[nH]c2=O)cc1 [Compound 4, 5-Bromo-1-(toluene-4-sulfonyl)-1H-pyrimidine-2,4-dione] was run?
Its value is 1.71 fold.

And the “fold active compared to neostigmine (AChE)” value ([2]; vs neostigmine)?
Its value is 1.54 fold.

And the “fold better BuChE inhibitor compared to 5” value ([1]; vs 5)?
The value was 1.42 fold.

What about the “fold less active compared to neostigmine (BuChE)” value ([1]; vs neostigmine) of the same molecule?
The value was 1.63 fold.

For CS(=O)(=O)n1cc(Br)c(=O)[nH]c1=O [Compound 5, 5-Bromo-1-methanesulfonyl-1H-pyrimidine-2,4-dione], which “fold decrease of AChE inhibitory activity, mesylate vs toluene-4-sulfonyl group” value ([2]; 5 vs 4) is on record?
Its value is 1.26 fold.
